# Source: the kinase profiling compilation of Christmann-Franck et al. (2016)
# pIC50, pKd: −log10 of the molar value.
# What was measured:
# [1] = target: GAK (human) (UniProt O14976); assay: KINOMEscan competition binding; conditions: compound 10.0 µM
# [2] = target: PLK1 (human) (UniProt P53350); assay: KINOMEscan competition binding; conditions: compound 10.0 µM
# [3] = target: PLK3 (human) (UniProt Q9H4B4); assay: KINOMEscan competition binding; conditions: compound 10.0 µM
# [4] = target: PLK4 (human) (UniProt O00444); assay: KINOMEscan competition binding; conditions: compound 10.0 µM
# Sequence of PLK4 (human) (O00444 whole entry, looked up): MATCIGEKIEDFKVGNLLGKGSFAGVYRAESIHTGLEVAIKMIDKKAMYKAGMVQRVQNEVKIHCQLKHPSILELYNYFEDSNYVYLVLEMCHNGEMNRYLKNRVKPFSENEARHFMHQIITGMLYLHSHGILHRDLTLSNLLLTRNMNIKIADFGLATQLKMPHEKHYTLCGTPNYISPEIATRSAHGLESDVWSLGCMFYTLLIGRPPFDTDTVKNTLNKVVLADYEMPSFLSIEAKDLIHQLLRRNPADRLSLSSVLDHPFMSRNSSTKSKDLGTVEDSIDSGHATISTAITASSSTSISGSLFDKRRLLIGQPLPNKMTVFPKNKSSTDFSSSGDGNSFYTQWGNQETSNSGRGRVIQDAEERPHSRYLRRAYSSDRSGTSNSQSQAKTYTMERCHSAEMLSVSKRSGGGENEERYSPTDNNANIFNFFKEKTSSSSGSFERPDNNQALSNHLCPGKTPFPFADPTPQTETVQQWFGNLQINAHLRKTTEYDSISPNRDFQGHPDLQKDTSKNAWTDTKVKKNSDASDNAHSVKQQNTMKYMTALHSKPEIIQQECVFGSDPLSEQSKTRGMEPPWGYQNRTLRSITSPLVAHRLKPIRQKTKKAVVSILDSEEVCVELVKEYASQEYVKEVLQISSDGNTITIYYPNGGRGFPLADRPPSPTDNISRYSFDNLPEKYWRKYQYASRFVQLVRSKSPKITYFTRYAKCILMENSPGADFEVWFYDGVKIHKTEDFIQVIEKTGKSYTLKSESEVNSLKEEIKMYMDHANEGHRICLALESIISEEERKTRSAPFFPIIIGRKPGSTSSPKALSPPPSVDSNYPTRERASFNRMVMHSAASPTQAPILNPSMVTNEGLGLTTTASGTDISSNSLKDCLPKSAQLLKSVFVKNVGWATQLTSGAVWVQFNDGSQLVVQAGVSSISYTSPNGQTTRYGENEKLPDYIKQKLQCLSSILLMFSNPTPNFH
# [5] = target: PTK2 (human) (UniProt Q05397); assay: KINOMEscan competition binding; conditions: compound 10.0 µM
# [6] = target: RAF1 (human) (UniProt P04049); assay: KINOMEscan competition binding; conditions: compound 10.0 µM
# [7] = target: STK33 (human) (UniProt Q9BYT3); assay: KINOMEscan competition binding; conditions: compound 10.0 µM
# [8] = target: TTK (human) (UniProt P33981); assay: KINOMEscan competition binding; conditions: for kinase still bound, per cent of control: compound 10.0 µM
# Sequence of TTK (human) (P33981 whole entry, looked up): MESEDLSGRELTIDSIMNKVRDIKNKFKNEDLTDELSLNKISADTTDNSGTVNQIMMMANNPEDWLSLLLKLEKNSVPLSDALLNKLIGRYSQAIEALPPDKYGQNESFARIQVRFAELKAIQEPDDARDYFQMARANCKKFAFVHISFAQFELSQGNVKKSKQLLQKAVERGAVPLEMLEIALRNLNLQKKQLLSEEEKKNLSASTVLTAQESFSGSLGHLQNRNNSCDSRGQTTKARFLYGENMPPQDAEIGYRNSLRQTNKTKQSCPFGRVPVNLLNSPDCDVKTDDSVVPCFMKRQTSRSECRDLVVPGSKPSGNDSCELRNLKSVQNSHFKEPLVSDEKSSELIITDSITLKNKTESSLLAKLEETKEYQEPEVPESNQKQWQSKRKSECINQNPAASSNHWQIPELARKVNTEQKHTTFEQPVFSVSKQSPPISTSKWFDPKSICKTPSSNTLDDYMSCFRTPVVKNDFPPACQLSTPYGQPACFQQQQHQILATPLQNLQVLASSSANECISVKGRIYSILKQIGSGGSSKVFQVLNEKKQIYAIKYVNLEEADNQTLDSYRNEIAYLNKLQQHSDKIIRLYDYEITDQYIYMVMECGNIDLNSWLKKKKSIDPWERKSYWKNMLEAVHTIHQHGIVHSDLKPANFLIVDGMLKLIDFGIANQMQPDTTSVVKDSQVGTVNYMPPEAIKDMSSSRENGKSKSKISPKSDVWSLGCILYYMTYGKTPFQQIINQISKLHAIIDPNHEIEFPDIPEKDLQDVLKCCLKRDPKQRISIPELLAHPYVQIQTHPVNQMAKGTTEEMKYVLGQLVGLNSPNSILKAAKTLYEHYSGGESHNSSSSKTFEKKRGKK
# [9] = target: TTK (human) (UniProt P33981); assay: SelectScreen, TR FRET
# [10] = target: CDC42BPB (human) (UniProt Q9Y5S2); assay: KINOMEscan competition binding; conditions: compound 10.0 µM
# [11] = target: CSNK2A1 (human) (UniProt P68400); assay: KINOMEscan competition binding; conditions: compound 10.0 µM
# [12] = target: CSNK2A2 (human) (UniProt P19784); assay: KINOMEscan competition binding; conditions: compound 10.0 µM
# [13] = target: DDR1 (human) (UniProt Q08345); assay: KINOMEscan competition binding; conditions: compound 10.0 µM
# [14] = target: MAPK8 (human) (UniProt P45983); assay: KINOMEscan competition binding; conditions: compound 10.0 µM
# [15] = target: MKNK2 (human) (UniProt Q9HBH9); assay: KINOMEscan competition binding; conditions: compound 10.0 µM
# [16] = target: PIM1 (human) (UniProt P11309); assay: KINOMEscan competition binding; conditions: compound 10.0 µM
# Sequence of PIM1 (human) (P11309 whole entry, looked up): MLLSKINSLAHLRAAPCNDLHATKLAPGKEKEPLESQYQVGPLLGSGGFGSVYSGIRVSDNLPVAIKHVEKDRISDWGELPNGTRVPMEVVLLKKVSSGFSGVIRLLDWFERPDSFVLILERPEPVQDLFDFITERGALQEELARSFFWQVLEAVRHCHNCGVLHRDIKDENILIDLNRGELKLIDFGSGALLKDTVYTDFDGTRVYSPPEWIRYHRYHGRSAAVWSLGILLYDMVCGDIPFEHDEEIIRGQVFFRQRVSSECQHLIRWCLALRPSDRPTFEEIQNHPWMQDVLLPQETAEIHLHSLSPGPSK
# [17] = target: PIM2 (human) (UniProt Q9P1W9); assay: KINOMEscan competition binding; conditions: compound 10.0 µM
# Sequence of PIM2 (human) (Q9P1W9 whole entry, looked up): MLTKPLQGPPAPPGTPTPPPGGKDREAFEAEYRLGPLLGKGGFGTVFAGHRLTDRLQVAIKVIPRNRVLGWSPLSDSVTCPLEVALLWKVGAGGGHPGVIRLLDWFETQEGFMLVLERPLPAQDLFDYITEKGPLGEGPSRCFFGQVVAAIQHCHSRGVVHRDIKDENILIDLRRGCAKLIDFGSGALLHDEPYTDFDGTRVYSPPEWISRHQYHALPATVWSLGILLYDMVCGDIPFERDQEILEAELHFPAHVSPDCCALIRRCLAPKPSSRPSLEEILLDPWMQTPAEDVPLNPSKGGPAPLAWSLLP
# [18] = target: PIM3 (human) (UniProt Q86V86); assay: KINOMEscan competition binding; conditions: compound 10.0 µM
# [19] = target: RPS6KA1 KD2 (human) (UniProt Q15418); assay: KINOMEscan competition binding; conditions: compound 10.0 µM
# [20] = target: RPS6KA2 KD2 (human) (UniProt Q15349); assay: KINOMEscan competition binding; conditions: compound 10.0 µM
# Sequence of RPS6KA2 KD2 (human) (Q15349 whole entry, looked up): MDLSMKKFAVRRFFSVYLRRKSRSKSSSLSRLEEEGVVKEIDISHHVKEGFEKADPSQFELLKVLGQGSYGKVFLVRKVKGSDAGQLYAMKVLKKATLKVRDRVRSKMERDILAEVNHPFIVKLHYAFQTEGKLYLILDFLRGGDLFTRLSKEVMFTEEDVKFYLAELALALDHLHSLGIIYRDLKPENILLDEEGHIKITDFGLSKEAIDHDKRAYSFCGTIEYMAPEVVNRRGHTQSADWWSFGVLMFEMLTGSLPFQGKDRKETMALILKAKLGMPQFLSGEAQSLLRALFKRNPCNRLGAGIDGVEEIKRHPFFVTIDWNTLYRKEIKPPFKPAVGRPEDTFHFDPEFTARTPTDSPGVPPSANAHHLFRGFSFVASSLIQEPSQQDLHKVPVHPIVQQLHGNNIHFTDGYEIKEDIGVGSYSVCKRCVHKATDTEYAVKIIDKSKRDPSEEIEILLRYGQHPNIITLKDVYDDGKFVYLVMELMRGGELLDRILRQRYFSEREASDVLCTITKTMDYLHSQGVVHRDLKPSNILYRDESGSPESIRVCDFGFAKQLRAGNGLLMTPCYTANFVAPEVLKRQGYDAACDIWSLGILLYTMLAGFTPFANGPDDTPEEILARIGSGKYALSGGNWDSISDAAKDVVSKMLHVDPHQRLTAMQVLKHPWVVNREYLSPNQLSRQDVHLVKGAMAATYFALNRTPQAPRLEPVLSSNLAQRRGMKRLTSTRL
# [21] = target: RPS6KA6 KD2 (human) (UniProt Q9UK32); assay: KINOMEscan competition binding; conditions: compound 10.0 µM
# [22] = target: STK17B (human) (UniProt O94768); assay: KINOMEscan competition binding; conditions: compound 10.0 µM
# [23] = target: STK24 (human) (UniProt Q9Y6E0); assay: KINOMEscan competition binding; conditions: compound 10.0 µM
# [24] = target: TLK1 (human) (UniProt Q9UKI8); assay: KINOMEscan competition binding; conditions: compound 10.0 µM
# [25] = target: PIM1 (human) (UniProt P11309); assay: SelectScreen, TR FRET
# [26] = target: PIM2 (human) (UniProt Q9P1W9); assay: SelectScreen, TR FRET
# [27] = target: AAK1 (human) (UniProt Q2M2I8); assay: KINOMEscan competition binding; conditions: compound 10.0 µM
# [28] = target: BTK (human) (UniProt Q06187); assay: KINOMEscan competition binding; conditions: compound 10.0 µM
# [29] = target: CDK16 (human) (UniProt Q00536); assay: KINOMEscan competition binding; conditions: compound 10.0 µM
# [30] = target: CDK7 (human) (UniProt P50613); assay: KINOMEscan competition binding; conditions: compound 10.0 µM
# [31] = target: DAPK1 (human) (UniProt P53355); assay: KINOMEscan competition binding; conditions: compound 10.0 µM
# [32] = target: DAPK2 (human) (UniProt Q9UIK4); assay: KINOMEscan competition binding; conditions: compound 10.0 µM
# [33] = target: DAPK3 (human) (UniProt O43293); assay: KINOMEscan competition binding; conditions: compound 10.0 µM
# [34] = target: HIPK1 (human) (UniProt Q86Z02); assay: KINOMEscan competition binding; conditions: compound 10.0 µM
# [35] = target: LATS2 (human) (UniProt Q9NRM7); assay: KINOMEscan competition binding; conditions: compound 10.0 µM
# [36] = target: MAP2K3 (human) (UniProt P46734); assay: KINOMEscan competition binding; conditions: compound 10.0 µM
# [37] = target: MAPK12 (human) (UniProt P53778); assay: KINOMEscan competition binding; conditions: compound 10.0 µM
# [38] = target: MINK1 (human) (UniProt Q8N4C8); assay: KINOMEscan competition binding; conditions: compound 10.0 µM
# [39] = target: PIK3C2B (human) (UniProt O00750); assay: KINOMEscan competition binding; conditions: compound 10.0 µM
# [40] = target: PIK3CA (human) (UniProt P42336); assay: KINOMEscan competition binding; conditions: compound 10.0 µM
# [41] = tested on: PIK3CA (human), P42336 [E545K]; assay: KINOMEscan competition binding; conditions: compound 10.0 µM
# [42] = target: PIK3CB (human) (UniProt P42338); assay: KINOMEscan competition binding; conditions: compound 10.0 µM
# [43] = target: PIK3CD (human) (UniProt O00329); assay: KINOMEscan competition binding; conditions: compound 10.0 µM
# [44] = target: PIK3CG (human) (UniProt P48736); assay: KINOMEscan competition binding; conditions: compound 10.0 µM
# [45] = target: RPS6KA4 KD2 (human) (UniProt O75676); assay: KINOMEscan competition binding; conditions: compound 10.0 µM
# [46] = target: TAOK1 (human) (UniProt Q7L7X3); assay: KINOMEscan competition binding; conditions: compound 10.0 µM
# [47] = target: CLK2 (human) (UniProt P49760); assay: KINOMEscan competition binding; conditions: compound 10.0 µM
# [48] = target: EIF2AK2 (human) (UniProt P19525); assay: KINOMEscan competition binding; conditions: compound 10.0 µM
# [49] = target: MAPK10 (human) (UniProt P53779); assay: KINOMEscan competition binding; conditions: compound 10.0 µM
# [50] = target: MAPK14 (human) (UniProt Q16539); assay: KINOMEscan competition binding; conditions: compound 10.0 µM
# [51] = target: MAPK15 (human) (UniProt Q8TD08); assay: KINOMEscan competition binding; conditions: compound 10.0 µM
# [52] = target: MAPK9 (human) (UniProt P45984); assay: KINOMEscan competition binding; conditions: compound 10.0 µM
# [53] = target: MYLK4 (human) (UniProt Q86YV6); assay: KINOMEscan competition binding; conditions: compound 10.0 µM
# [54] = target: PAK2 (human) (UniProt Q13177); assay: KINOMEscan competition binding; conditions: compound 10.0 µM
# [55] = target: PAK7 (human) (UniProt Q9P286); assay: KINOMEscan competition binding; conditions: compound 10.0 µM
# [56] = target: STK17A (human) (UniProt Q9UEE5); assay: KINOMEscan competition binding; conditions: compound 10.0 µM
# [57] = target: STK25 (human) (UniProt O00506); assay: KINOMEscan competition binding; conditions: compound 10.0 µM
# [58] = target: TAOK3 (human) (UniProt Q9H2K8); assay: KINOMEscan competition binding; conditions: compound 10.0 µM
# [59] = target: TLK2 (human) (UniProt Q86UE8); assay: KINOMEscan competition binding; conditions: compound 10.0 µM
# [60] = target: ZAP70 (human) (UniProt P43403); assay: KINOMEscan competition binding; conditions: compound 10.0 µM
# [61] = target: MYLK (human) (UniProt Q15746); assay: KINOMEscan competition binding; conditions: compound 10.0 µM
# Sequence of GAK (human) (O14976 whole entry, looked up): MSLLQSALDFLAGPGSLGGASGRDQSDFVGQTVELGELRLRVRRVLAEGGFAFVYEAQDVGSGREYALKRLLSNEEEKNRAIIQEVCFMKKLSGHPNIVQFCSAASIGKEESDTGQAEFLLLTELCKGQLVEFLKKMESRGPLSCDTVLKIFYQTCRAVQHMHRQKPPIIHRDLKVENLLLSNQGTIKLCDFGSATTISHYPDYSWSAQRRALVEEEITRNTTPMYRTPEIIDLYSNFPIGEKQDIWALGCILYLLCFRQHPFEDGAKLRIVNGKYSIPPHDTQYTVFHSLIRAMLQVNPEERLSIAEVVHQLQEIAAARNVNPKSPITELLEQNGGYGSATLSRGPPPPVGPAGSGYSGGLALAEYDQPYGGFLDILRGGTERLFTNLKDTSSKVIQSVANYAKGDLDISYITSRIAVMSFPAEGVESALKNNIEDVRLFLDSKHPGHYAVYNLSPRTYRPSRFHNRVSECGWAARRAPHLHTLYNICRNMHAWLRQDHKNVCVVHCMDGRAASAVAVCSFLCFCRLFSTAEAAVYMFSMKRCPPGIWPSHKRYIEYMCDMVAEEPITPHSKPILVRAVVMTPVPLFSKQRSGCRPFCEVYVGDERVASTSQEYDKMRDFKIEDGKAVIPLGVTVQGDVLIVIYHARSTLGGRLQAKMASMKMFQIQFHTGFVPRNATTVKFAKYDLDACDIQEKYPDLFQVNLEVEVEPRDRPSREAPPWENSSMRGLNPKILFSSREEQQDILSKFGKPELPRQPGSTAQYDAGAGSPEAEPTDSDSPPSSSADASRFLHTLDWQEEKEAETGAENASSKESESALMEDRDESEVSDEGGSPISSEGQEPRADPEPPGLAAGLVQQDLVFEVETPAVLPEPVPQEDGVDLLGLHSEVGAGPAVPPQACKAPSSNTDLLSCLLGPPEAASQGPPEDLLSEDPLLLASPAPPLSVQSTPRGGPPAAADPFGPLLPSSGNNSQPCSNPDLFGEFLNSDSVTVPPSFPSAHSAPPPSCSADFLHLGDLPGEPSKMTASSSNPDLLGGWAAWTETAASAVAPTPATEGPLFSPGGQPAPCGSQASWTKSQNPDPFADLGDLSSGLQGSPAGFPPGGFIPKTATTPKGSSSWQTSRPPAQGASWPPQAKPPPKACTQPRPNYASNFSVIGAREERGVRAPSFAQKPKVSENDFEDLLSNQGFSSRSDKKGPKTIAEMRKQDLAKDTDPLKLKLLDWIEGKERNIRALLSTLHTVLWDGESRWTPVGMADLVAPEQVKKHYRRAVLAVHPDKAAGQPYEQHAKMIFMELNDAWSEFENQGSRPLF
Compound,"kinase still bound, per cent of control [1] [%]","kinase still bound, per cent of control [2] [%]","kinase still bound, per cent of control [3] [%]","kinase still bound, per cent of control [4] [%]","kinase still bound, per cent of control [6] [%]","kinase still bound, per cent of control [8] [%]","kinase still bound, per cent of control [11] [%]","kinase still bound, per cent of control [12] [%]","kinase still bound, per cent of control [14] [%]","kinase still bound, per cent of control [16] [%]","kinase still bound, per cent of control [17] [%]","kinase still bound, per cent of control [18] [%]","kinase still bound, per cent of control [19] [%]","kinase still bound, per cent of control [20] [%]","kinase still bound, per cent of control [21] [%]","kinase still bound, per cent of control [22] [%]",pIC50 [25],pIC50 [26],"kinase still bound, per cent of control [27] [%]","kinase still bound, per cent of control [29] [%]",also measured
COc1cc(N(C)CCO)ccc1Nc1ncc2c(n1)N(C1CCCC1)CCC(=O)N2C,2.4,7.4,0,14,0,2.2,,,,,,,,,,,,,,,"kinase still bound, per cent of control [5]: 17%; kinase still bound, per cent of control [7]: 17%; pKd [8]: 6.80; pIC50 [9]: 5.86"
O=C1NC(=O)/C(=C/c2ccc(-c3ccc4c(C(=O)Nc5cccc(C(F)(F)F)c5)cccc4c3)o2)S1,,,,,,,33,33,30,14,0.75,11,23,31,25,7.4,5.04,5.54,,,"kinase still bound, per cent of control [10]: 28%; kinase still bound, per cent of control [13]: 21%; kinase still bound, per cent of control [15]: 34%; kinase still bound, per cent of control [23]: 29%; kinase still bound, per cent of control [24]: 24%"
NS(=O)(=O)c1ccc(-c2ccc(/C=C3\SC(=O)NC3=O)o2)cc1,,,,21,,,18,7.9,,4,0.9,4.9,,,,9,6.67,6.90,34,19,"kinase still bound, per cent of control [28]: 30%; kinase still bound, per cent of control [30]: 27%; kinase still bound, per cent of control [31]: 6%; kinase still bound, per cent of control [32]: 6.4%; kinase still bound, per cent of control [33]: 11%; kinase still bound, per cent of control [34]: 2.4%; kinase still bound, per cent of control [35]: 8.1%; kinase still bound, per cent of control [36]: 34%; kinase still bound, per cent of control [37]: 28%; kinase still bound, per cent of control [38]: 1.8%; kinase still bound, per cent of control [39]: 18%; kinase still bound, per cent of control [40]: 15%; kinase still bound, per cent of control [41]: 20%; kinase still bound, per cent of control [42]: 31%; kinase still bound, per cent of control [43]: 32%; kinase still bound, per cent of control [44]: 3.6%; kinase still bound, per cent of control [45]: 9.9%; kinase still bound, per cent of control [46]: 9.6%"
CSC1=NC(=O)/C(=C/c2ccc(-c3ccc(S(N)(=O)=O)cc3)o2)S1,6.7,,,0.05,,16,,,31,1.6,3,1.8,12,5.3,18,,,,14,0.1,"kinase still bound, per cent of control [30]: 1.4%; kinase still bound, per cent of control [47]: 9.8%; kinase still bound, per cent of control [48]: 17%; kinase still bound, per cent of control [34]: 6.5%; kinase still bound, per cent of control [36]: 14%; kinase still bound, per cent of control [49]: 22%; kinase still bound, per cent of control [50]: 19%; kinase still bound, per cent of control [51]: 29%; kinase still bound, per cent of control [52]: 6%; kinase still bound, per cent of control [53]: 19%; kinase still bound, per cent of control [54]: 34%; kinase still bound, per cent of control [55]: 28%; kinase still bound, per cent of control [56]: 2.5%; kinase still bound, per cent of control [57]: 32%; kinase still bound, per cent of control [46]: 3.6%; kinase still bound, per cent of control [58]: 24%; kinase still bound, per cent of control [59]: 28%; kinase still bound, per cent of control [60]: 32%"
CCN(CC)C1CCN(c2ccc(Nc3ncc4c(n3)N3CCCC3C=CN4C)c(OC(C)C)c2)CC1 (centres undefined),27,4.4,5.8,,0,7.4,,,,,,,,32,,,,,,,"kinase still bound, per cent of control [61]: 25%; kinase still bound, per cent of control [45]: 1.9%"
